Holding throughout (assay): intact protein mass spectrometry
What all share (format): binding

For assay [1], the target named is T1, BcGH76 (Niallia circulans, UniProt Q9Z4P9, R341Q).
T1 construct: gene aman6; recombinant GH76 endo-mannanase; borders and tags not given; R341Q crystallisation variant also used
Conditions: covalent, probe:protein 10:1, 25 mM HEPES pH 7, 100 mM NaCl, 293 K. An excerpt: (§1) intact protein mass spectrometry on BcGH76

Assay [2] has as its target T2, BcGH76 (Niallia circulans, UniProt Q9Z4P9).
T2 construct: gene aman6; recombinant GH76 endo-mannanase; borders and tags not given; R341Q crystallisation variant also used
Particulars: probe:protein 10:1, 25 mM HEPES pH 7, 100 mM NaCl, 293 K, 22 h.
From the text: as §1

For assay [3], the target named is T3, BcGH76 (Niallia circulans, UniProt Q9Z4P9, D125N).
T3 construct: gene aman6; recombinant GH76 endo-mannanase; borders and tags not given; R341Q crystallisation variant also used
T3 sequence (Q9Z4P9 entry or part of it D125N): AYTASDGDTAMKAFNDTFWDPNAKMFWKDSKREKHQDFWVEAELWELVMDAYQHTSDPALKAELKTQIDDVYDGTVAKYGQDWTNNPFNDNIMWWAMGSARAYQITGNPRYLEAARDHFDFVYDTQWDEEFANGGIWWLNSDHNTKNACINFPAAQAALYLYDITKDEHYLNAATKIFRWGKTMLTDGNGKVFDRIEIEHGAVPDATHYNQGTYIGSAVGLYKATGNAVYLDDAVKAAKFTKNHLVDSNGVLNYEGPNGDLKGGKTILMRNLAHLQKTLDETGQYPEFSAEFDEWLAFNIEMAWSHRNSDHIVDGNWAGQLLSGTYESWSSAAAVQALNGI
Particulars: probe:protein 10:1, 25 mM HEPES pH 7, 100 mM NaCl, 293 K.
From the text: as §1

Assay [4] has as its target T4, BcGH76 (Niallia circulans, UniProt Q9Z4P9, D125N/R341Q).
T4 construct: gene aman6; recombinant GH76 endo-mannanase; borders and tags not given; R341Q crystallisation variant also used
Particulars: covalent, probe:protein 10:1, 25 mM HEPES pH 7, 100 mM NaCl, 293 K.
From the text: as §1

Each structure is given as a SMILES string.

T2 sequence (Q9Z4P9 entry or part of it): as the sequence (Q9Z4P9 entry or part of it D125N) above, with N91D counted along it
T1 sequence (Q9Z4P9 entry or part of it R341Q): as the sequence (Q9Z4P9 entry or part of it D125N) above, with N91D, R307Q counted along it
T4 sequence (Q9Z4P9 entry or part of it D125N/R341Q): as the sequence (Q9Z4P9 entry or part of it D125N) above, with R307Q counted along it

Turning to `OC[C@H]1O[C@H](OC[C@@H]2[C@@H](O)[C@H](O)[C@H](O)[C@H]3O[C@@H]23)[C@@H](O)[C@@H](O)[C@@H]1O` [compound 1, α‐1,6‐α‐manno‐cyclophellitol disaccharide 1], in assay [1], the “22 h incubation / 1” value is given as 30%. Further, the covalent labelling in assay [2] is reported as 30%.

For `OC[C@H]1O[C@H](OC[C@H]2O[C@H](OC[C@@H]3[C@@H](O)[C@H](O)[C@H](O)[C@H]4O[C@@H]34)[C@@H](O)[C@@H](O)[C@@H]2O)[C@@H](O)[C@@H](O)[C@@H]1O` [compound 2, trisaccharide 2], the “16 h incubation / 2” value in assay [1] (22 h) is 17%. Further, the covalent labelling in assay [2] was found to be 30%. The “22 h incubation / 2” value in assay [3] (covalent) and in assay [4] was 85% throughout.

With `OC[C@H]1O[C@H](OC[C@H]2C[C@H](OC[C@@H]3[C@@H](O)[C@H](O)[C@H](O)[C@H]4O[C@@H]34)[C@@H](O)[C@@H](O)[C@@H]2O)[C@@H](O)[C@@H](O)[C@@H]1O` [compound 3, carba‐trisaccharide cyclophellitol 3], in assay [1] (22 h), the “16 h incubation / 3” value was found to be 100%. Besides, in assay [2], the percent covalent labelling is reported as 100%. Besides, the “covalent labelling of protein (%)” value in assay [3] (22 h) was 44%. For the same compound, the “22 h incubation / 3” value in assay [4] amounted to 45%.

The values above are taken from publication PMC8362039, “Development of Non‐Hydrolysable Oligosaccharide Activity‐Based Inactivators for Endoglycanases: A Case Study on α‐1,6 Mannanases” (Chemistry (Weinheim an Der Bergstrasse, Germany), 2021).
